Values of other authors, collected in PubChem BioAssay AID1259409 (Chemical Carcinogenesis Research Information System (CCRIS), 2018).
Where “and” joins values, the source holds several entries; their conditions need not be identical. Identical values can stand only once.

Tested on: rodent chemically induced tumor inhibition, incidence and multiplicity
Test: CCRIS tumor inhibitor studies

O=c1ccc2ccccc2o1
tumour outcome (control, treated, inhibition, significance) (Carcinogen: 7,12-DIMETHYLBENZ(A)ANTHRACENE, 57-97-6, Dose [Inhibitor]: 0.034 MMOL/G IN DIET BEGINNING 1 D PRIOR TO CARCINOGEN DOSE AND CONTINUING FOR 8 D (STUDY DURATION: 23 WK), Route [Inhibitor]: ORAL, Species: RAT, Strain/Sex: SPRAGUE-DAWLEY/FEMALE, Target Tissue: Type of Lesion: MAMMARY GLAND: TUMOR, Dose [Carcinogen]: 12 MG IN 1.0 ML OLIVE OIL ONCE, Promoter: NONE USED): 86%, 31%, 64%, p<0.01 | tumour outcome (control, treated, inhibition, significance) (Carcinogen: 7,12-DIMETHYLBENZ[A]ANTHRACENE, 57-97-6, Dose [Inhibitor]: 0.068 MMOL/G IN DIET BEGINNING 7 D PRIOR TO CARCINOGEN DOSE AND CONTINUING FOR 8 D (STUDY DURATION: 23 WK), Route [Inhibitor]: ORAL, Species: RAT, Strain/Sex: SPRAGUE-DAWLEY/FEMALE, Target Tissue: Type of Lesion: MAMMARY GLAND: TUMOR, Dose [Carcinogen]: 12 MG IN 1.0 ML OLIVE OIL, Promoter: NONE USED): 86%, 14%, 84%, p<0.01, | tumour outcome (control, treated, inhibition, significance) (Carcinogen: BENZO[A]PYRENE, 50-32-8, Dose [Inhibitor]: 0.068 MMOL/G IN DIET FOR 5 WK BEGINNING 1 WK PRIOR TO CARCINOGEN TREATMENT (STUDY DURATION: 21 WK), Route [Inhibitor]: ORAL, Species: MOUSE, Strain/Sex: ICR/FEMALE, Target Tissue: Type of Lesion: FORESTOMACH: TUMOR, Dose [Carcinogen]: 1 MG IN 0.2 ML CORN OIL, 2/WK FOR 4 WK, Promoter: NONE USED): 100%, 61%, 39%, p<0.05

CC(=O)O[C@H]1CC[C@@]2(C)C(=CC[C@@H]3[C@@H]2CC[C@]2(C)C(=O)CC[C@@H]32)C1
tumour outcome (control, treated, inhibition, significance) (Carcinogen: 7,12-DIMETHYLBENZ[A]ANTHRACENE, 57-97-6, Dose [Inhibitor]: 0, 5 MG/100 G BW 1/WK FOR 150 D BEGINNING POST CARCINOGEN TREATMENT (STUDY DURATION: 150 D), Route [Inhibitor]: SUBCUTANEOUS, Species: RAT, Strain/Sex: WISTAR/FEMALE, Target Tissue: Type of Lesion: MAMMARY GLAND: ADENOCARCINOMA, Dose [Carcinogen]: 4 MG IN 0.1 ML OF SESAME OIL INJECTED ONCE INTO THE EXPOSED MAMMARY TISSUE OF HYPERPROLACTINEMIC RATS ON DAY 73 OF AGE, Promoter: NONE USED): 8/11 (73%), 0/10 (0%), 100%, p<0.01

CCCCCCCCCCCCCCCC(=O)OC[C@H](O)[C@H]1OC(=O)C(O)=C1O
tumour outcome (control, treated, inhibition, significance) (Carcinogen: 7,12-DIMETHYLBENZ[A]ANTHRACENE, 57-97-6, Dose [Inhibitor]: 0, 1 UMOL 1/WK 5 MIN PRIOR TO EACH PROMOTER DOSE BEGINNING 2 WK POST CARCINOGEN DOSE AND CONTINUING FOR 27 WK (STUDY DUR, Route [Inhibitor]: DERMAL, Species: MOUSE, Strain/Sex: SENCAR/FEMALE, Target Tissue: Type of Lesion: SKIN: PAPILLOMA, Dose [Carcinogen]: 25 NMOL ONCE, Promoter: CHRYSAROBIN, 491-58-7): 100%, 88%, 12%, not significant | tumour outcome (control, treated, inhibition, significance) (Carcinogen: 7,12-DIMETHYLBENZ[A]ANTHRACENE, 57-97-6, Dose [Inhibitor]: 0, 4 UMOL 1/WK 5 MIN PRIOR TO EACH PROMOTER DOSE BEGINNING 2 WK POST CARCINOGEN DOSE AND CONTINUING FOR 27 WK (STUDY DUR, Route [Inhibitor]: DERMAL, Species: MOUSE, Strain/Sex: SENCAR/FEMALE, Target Tissue: Type of Lesion: SKIN: PAPILLOMA, Dose [Carcinogen]: 25 NMOL ONCE, Promoter: CHRYSAROBIN, 491-58-7): 100%, 90%, 10%, not significant

CCCCC(CC)COC(=O)c1ccccc1C(=O)OCC(CC)CCCC (configuration not stated)
tumour outcome (control, treated, inhibition, significance) (Carcinogen: N-NITROSOBIS(2-HYDROXYPROPYL)AMINE, 53609-64-6, Dose [Inhibitor]: 0, 1.2% IN DIET FOR 30 WK BEGINNING POST CARCINOGEN TREATMENT (STUDY DURATION: 35 WK), Route [Inhibitor]: ORAL, Species: HAMSTER, Strain/Sex: SYRIAN/MALE, Target Tissue: Type of Lesion: PANCREAS: ADENOCARCINOMA, Dose [Carcinogen]: 500 MG/KG 1/WK FOR 5 WK, Promoter: NONE USED): 8/17 (47%), 7/19 (37%), 21%, not significant

CC(C)=CCc1cc(/C=C/C(=O)O)cc(CC=C(C)C)c1O
tumour outcome (control, treated, inhibition, significance) (Carcinogen: FERRIC NITRILOTRIACETATE, 16448-54-7, Dose [Inhibitor]: 0, 350 UG/MOUSE IN OLIVE OIL TWICE/D FOR 5 D/WK FOR 1 YR BEGINNING POST CARCINOGEN TREATMENT (STUDY DURATION: 1 YR AND 8, Route [Inhibitor]: ORAL, Species: MOUSE, Strain/Sex: DDY/MALE, Target Tissue: Type of Lesion: KIDNEY: CARCINOMA, Dose [Carcinogen]: 43.6 MG/KG BW/D TWICE/WK FOR FIRST 8 WK, Promoter: NONE): 1/9 (11%), 0/6 (0%), 100%, not significant

O=c1c(O)c(-c2cc(O)c(O)c(O)c2)oc2cc(O)cc(O)c12
tumour outcome (control, treated, inhibition, significance) (Carcinogen: 7,12-DIMETHYLBENZ[A]ANTHRACENE, 57-97-6, Dose [Inhibitor]: 100 UG IN 0.2 ML ACETONE ONCE 5 MIN BEFORE CARCINOGEN TREATMENT (STUDY DURATION: 31 WK), Route [Inhibitor]: DERMAL, Species: MOUSE, Strain/Sex: CD-1/FEMALE, Target Tissue: Type of Lesion: SKIN: PAPILLOMA, Dose [Carcinogen]: 10 NMOL IN 0.2 ML ACETONE ONCE, Promoter: 12-O-TETRADECANOYLPHORBOL-13-ACETATE, 16561-29-8): 87%, 85%, 2%, not calculated | tumour outcome (control, treated, inhibition, significance) (Carcinogen: (+/-)-7BETA,8ALPHA-DIHYDROXY-9ALPHA,10ALPHA-EPOXY-7,8,9,10-TETRAHYDROBENZO[A]PYR ENE, 58917-67-2, Dose [Inhibitor]: 0, 1400 NMOL (TOTAL DOSE) 10 MIN PRIOR TO CARCINOGEN DOSE INJECTED AS 1/7, 2/7, AND 4/7 OF THE TOTAL ON DAYS 1, 8, AND 1, Route [Inhibitor]: INTRAPERITONEAL, Species: MOUSE, Strain/Sex: ICR/MALE,FEMALE, Target Tissue: Type of Lesion: LUNG: TUMOR, Dose [Carcinogen]: 30 NMOL (TOTAL DOSE) INJECTED IN DOSES OF 1/7, 2/7, AND 4/7 ON DAYS 1,8, AND 15 OF LIFE, RESPECTIVELY, Promoter: NONE USED): 93%, 65%, 30%, p<0.05 | tumour outcome (control, treated, inhibition, significance) (Carcinogen: (+/-)-7BETA,8ALPHA-DIHYDROXY-9ALPHA,10ALPHA-EPOXY-7,8,9,10-TETRAHYDROBENZO[A]PYR ENE, 58917-67-2, Dose [Inhibitor]: 0, 1400 NMOL (TOTAL DOSE) APPLIED 10 MIN PRIOR TO CARCINOGEN DOSE INJECTED AS 1/7, 2/7, AND 4/7 OF THE TOTAL ON DAYS 1,, Route [Inhibitor]: INTRAPERITONEAL, Species: MOUSE, Strain/Sex: ICR/MALE,FEMALE, Target Tissue: Type of Lesion: LUNG: TUMOR, Dose [Carcinogen]: 15 NMOL (TOTAL DOSE) INJECTED IN DOSES OF 1/7, 2/7, AND 4/7 ON DAYS 1, 8, AND 15 OF LIFE, RESPECTIVELY, Promoter: NONE USED): 63%, 36%, 43%, p<0.05 | tumour outcome (control, treated, inhibition, significance) (Carcinogen: BENZO[A]PYRENE, 50-32-8, Dose [Inhibitor]: 0, 1400 NMOL (TOTAL DOSE) APPLIED 10 MIN PRIOR TO CARCINOGEN DOSE INJECTED AS 1/7, 2/7, AND 4/7 OF THE TOTAL ON DAYS 1,, Route [Inhibitor]: INTRAPERITONEAL, Species: MOUSE, Strain/Sex: ICR/MALE,FEMALE, Target Tissue: Type of Lesion: LUNG: TUMOR, Dose [Carcinogen]: 450 NMOL (TOTAL DOSE) INJECTED IN DOSES OF 1/7, 2/7, AND 4/7 ON DAYS 1, 8, AND 15 OF LIFE, RESPECTIVELY, Promoter: NONE USED): 73%, 79%, -8%, not significant

Nc1ncn([C@@H]2O[C@H](CO)[C@@H](O)[C@H]2O)c(=O)n1
tumour outcome (control, treated, inhibition, significance) (Carcinogen: DIETHYLNITROSAMINE, 55-18-5, Dose [Inhibitor]: 0, 5 MG/KG INJECTED 4, 24, AND 48 HR AFTER EACH CARCINOGEN EXPOSURE (STUDY DURATION: 6 MO), Route [Inhibitor]: INTRAPERITONEAL, Species: RAT, Strain/Sex: BD6/MALE, Target Tissue: Type of Lesion: ESOPHAGUS: TUMOR, Dose [Carcinogen]: 80 MG/KG 1/WK FOR 5 WK): 4/29 (14%), 3/27 (11%), 21%, not calculated | tumour outcome (control, treated, inhibition, significance) (Carcinogen: DIETHYLNITROSAMINE, 55-18-5, Dose [Inhibitor]: 0, 5 MG/KG INJECTED 4, 24, AND 48 HR AFTER EACH CARCINOGEN EXPOSURE (STUDY DURATION: 6 MO), Route [Inhibitor]: INTRAPERITONEAL, Species: RAT, Strain/Sex: BD6/MALE, Target Tissue: Type of Lesion: LIVER: TUMOR, Dose [Carcinogen]: 80 MG/KG 1/WK FOR 5 WK): 15/29 (52%), 25/27 (93%), -79%, not calculated | tumour outcome (control, treated, inhibition, significance) (Carcinogen: DIETHYLNITROSAMINE, 55-18-5, Dose [Inhibitor]: 0, 10 MG/KG INJECTED 4, 24, AND 48 HR AFTER EACH CARCINOGEN EXPOSURE (STUDY DURATION: 6 MO), Route [Inhibitor]: INTRAPERITONEAL, Species: RAT, Strain/Sex: BD6/MALE, Target Tissue: Type of Lesion: ESOPHAGUS: TUMOR, Dose [Carcinogen]: 80 MG/KG 1/WK FOR 5 WK): 4/29 (14%), 0/7 (0%), 100%, not calculated | tumour outcome (control, treated, inhibition, significance) (Carcinogen: DIETHYLNITROSAMINE, 55-18-5, Dose [Inhibitor]: 0, 10 MG/KG INJECTED 4, 24, AND 48 HR AFTER EACH CARCINOGEN EXPOSURE (STUDY DURATION: 6 MO), Route [Inhibitor]: INTRAPERITONEAL, Species: RAT, Strain/Sex: BD6/MALE, Target Tissue: Type of Lesion: LIVER: TUMOR, Dose [Carcinogen]: 80 MG/KG 1/WK FOR 5 WK): 15/29 (52%), 6/7 (86%), -65%, not calculated

CC1(C)OC(=O)C=C[C@]2(C)[C@H]3CC[C@@]4(C)[C@H](c5ccoc5)OC(=O)[C@H]5O[C@]54[C@]3(C)C(=O)C[C@@H]12
tumour outcome (control, treated, inhibition, significance) (Carcinogen: AZOXYMETHANE, 25843-45-2, Dose [Inhibitor]: 0, 0.05% IN DIET FOR 35 WK BEGINNING 1 WK POST CARCINOGEN LAST DOSE (STUDY DURATION: 38 WK), Route [Inhibitor]: ORAL, Species: RAT, Strain/Sex: F344/MALE, Target Tissue: Type of Lesion: COLON: ADENOCARCINOMA, Dose [Carcinogen]: 20 MG/KG BW 1/WK FOR 2 WK): 18/25 (72%), 2/16 (13%), 82%, p=0.0002 and 18/25 (72%), 4/16 (25%), 65%, p=0.004
